Assay results published in patent US20220386606A1, “SPECIFICALLY SUBSTITUTED 3-PHENYL-5-SPIROCYCLOPENTYL-3-PYRROLIN-2-ONES AND THEIR USE AS HERBICIDES” (Bayer Aktiengesellschaft, priority 2019, published 2022).

How the values were obtained:
SETVI [1] = test: Pre-emergence herbicidal action against SETVI; assay type: in vivo, Setaria viridis; details: 320 g/ha, scored visually after 3 weeks vs untreated controls
How it was run: (§1)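 Percent activity (0% = like control, 100% = dead) read visually after a 3-week greenhouse period. Application: aqueous WP or EC formulations sprayed onto soil covering sown seeds, water rate 600 to 800 L/ha with 0.2% wetting agent.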

ALOMY [2] = test: Post-emergence herbicidal action against ALOMY; assay type: in vivo, Alopecurus myosuroides; details: 80 g/ha, visual assessment after about 3 weeks
How it was run: (§2)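 Herbicidal action is rated visually in percent against untreated controls, where 100% means dead plants and 0% means no difference. Ratings come about 3 weeks after foliar spraying of one-leaf-stage plants with aqueous WP or EC preparations plus 0.2% wetting agent at 600 to 800 l/ha.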

ECHCG [3] = test: Pre-emergence herbicidal action against ECHCG; assay type: in vivo, Echinochloa crus-galli; details: 320 g/ha, scored visually after 3 weeks vs untreated controls
How it was run: as §1

LOLRI [4] = test: Post-emergence herbicidal action against LOLRI; assay type: in vivo, Lolium rigidum; details: 80 g/ha, visual assessment about 3 weeks after treatment vs untreated controls
How it was run: as §2

ALOMY [5] = test: Pre-emergence herbicidal action against ALOMY; assay type: in vivo, Alopecurus myosuroides; details: 320 g/ha, scored visually after 3 weeks vs untreated controls
How it was run: as §1

DIGSA [6] = test: Post-emergence herbicidal action against DIGSA; assay type: in vivo, Digitaria sanguinalis; details: 80 g/ha, visual assessment about 3 weeks after treatment vs untreated controls
How it was run: as §2

MATIN = test: Pre-emergence herbicidal action against MATIN; assay type: in vivo; details: 320 g/ha
Source text: (§3) Seeds of monocotyledonous and dicotyledonous weed plants and crop plants are laid out in sandy loam soil in wood-fiber pots and covered with soil. The compounds of the invention, formulated in the form of wettable powders (WP) or as emulsion concentrates (EC), are then applied to the surface of the covering soil as aqueous suspension or emulsion at a water application rate equating to 600 to 800 L/ha with addition of 0.2% wetting agent.
(§4) After the treatment, the pots are placed in a greenhouse and kept under good growth conditions for the trial plants. The damage to the test plants is scored visually after a test period of 3 weeks by comparison with untreated controls (herbicidal activity in percent (%): 100% activity=the plants have died, 0% activity=like control plants).

SETVI [7] = test: Post-emergence herbicidal action against SETVI; assay type: in vivo, Setaria viridis; details: 80 g/ha, visual assessment about 3 weeks after treatment vs untreated controls
How it was run: as §2

VIOTR = test: Pre-emergence herbicidal action against VIOTR; assay type: in vivo, Viola tricolor; details: 320 g/ha
How it was run: as §1

DIGSA [8] = test: Pre-emergence herbicidal action against DIGSA; assay type: in vivo, Digitaria sanguinalis; details: 320 g/ha, scored visually after 3 weeks vs untreated controls
How it was run: as §1

ECHCG [9] = test: Post-emergence herbicidal action against ECHCG; assay type: in vivo, Echinochloa crus-galli; details: 80 g/ha, visual assessment about 3 weeks after treatment vs untreated controls
How it was run: as §2

AMARE = test: Pre-emergence herbicidal action against AMARE; assay type: in vivo, Amaranthus retroflexus; details: 320 g/ha
How it was run: as §1

AVEFA [10] = test: Post-emergence herbicidal action against AVEFA; assay type: in vivo, Avena fatua; details: 80 g/ha, visual assessment after about 3 weeks
How it was run: as §2

LOLRI [11] = test: Pre-emergence herbicidal action against LOLRI (Table 8, titled post-emergence at 320 g/ha); assay type: in vivo, Lolium rigidum; details: table stands in the pre-emergence section
How it was run: as §1

AVEFA [12] = test: Pre-emergence herbicidal action against AVEFA; assay type: in vivo, Avena fatua; details: 320 g/ha, scored visually after 3 weeks vs untreated controls
How it was run: as §1

VERPE = test: Pre-emergence herbicidal action against VERPE; assay type: in vivo, Veronica persica; details: 320 g/ha
Source text: as §3, §4

CC#Cc1cc(C)c(C2=C(OC(=O)C(C)C)C3(CCC(COCC)C3)NC2=O)c(F)c1 (stereo not shown) [Example P-56]
Pre-emergence action against SETVI in % (SETVI [1]): 100%
Post-emergence action against ALOMY in % (ALOMY [2]): 100%
Pre-emergence action against ECHCG in % (ECHCG [3]): 100%
Post-emergence action against LOLRI in % (LOLRI [4]): 100%
Pre-emergence action against ALOMY in % (ALOMY [5]): 100%
Post-emergence action against DIGSA in % (DIGSA [6]): 100%
Pre-emergence action against MATIN in % (MATIN): 80%
Post-emergence action against SETVI in % (SETVI [7]): 100%
Pre-emergence action against VIOTR in % (VIOTR): 100%
Pre-emergence action against DIGSA in % (DIGSA [8]): 100%
Post-emergence action against ECHCG in % (ECHCG [9]): 100%
Pre-emergence action against AMARE in % (AMARE): 80%
Post-emergence action against AVEFA in % (AVEFA [10]): 90%
Pre-emergence herbicidal action against LOLRI in % (LOLRI [11]): 100%
Pre-emergence action against AVEFA in % (AVEFA [12]): 80%

CC#Cc1cc(F)c(C2=C(OC(=O)OCC)C3(CCC(COCCC)C3)NC2=O)c(OC)c1 (stereo not shown) [Example P-84]
Pre-emergence action against SETVI in % (SETVI [1]): 100%
Pre-emergence action against ECHCG in % (ECHCG [3]): 100%
Post-emergence action against LOLRI in % (LOLRI [4]): 80%
Pre-emergence action against ALOMY in % (ALOMY [5]): 100%
Post-emergence action against DIGSA in % (DIGSA [6]): 90%
Pre-emergence action against MATIN in % (MATIN): 80%
Post-emergence action against SETVI in % (SETVI [7]): 100%
Pre-emergence action against VIOTR in % (VIOTR): 80%
Pre-emergence action against DIGSA in % (DIGSA [8]): 100%
Post-emergence action against ECHCG in % (ECHCG [9]): 100%
Post-emergence action against AVEFA in % (AVEFA [10]): 80%
Pre-emergence herbicidal action against LOLRI in % (LOLRI [11]): 100%
Pre-emergence action against AVEFA in % (AVEFA [12]): 80%

C#CCOCC1CCC2(C1)NC(=O)C(c1c(C)cc(C#CC)cc1OC)=C2OC(=O)OCC (stereo not shown) [Example P-101]
Pre-emergence action against SETVI in % (SETVI [1]): 100%
Post-emergence action against ALOMY in % (ALOMY [2]): 100%
Pre-emergence action against ECHCG in % (ECHCG [3]): 100%
Post-emergence action against LOLRI in % (LOLRI [4]): 100%
Pre-emergence action against ALOMY in % (ALOMY [5]): 100%
Post-emergence action against DIGSA in % (DIGSA [6]): 90%
Pre-emergence action against MATIN in % (MATIN): 80%
Post-emergence action against SETVI in % (SETVI [7]): 100%
Pre-emergence action against VIOTR in % (VIOTR): 80%
Pre-emergence action against DIGSA in % (DIGSA [8]): 100%
Post-emergence action against ECHCG in % (ECHCG [9]): 100%
Pre-emergence action against AMARE in % (AMARE): 100%
Post-emergence action against AVEFA in % (AVEFA [10]): 80%
Pre-emergence herbicidal action against LOLRI in % (LOLRI [11]): 100%
Pre-emergence action against AVEFA in % (AVEFA [12]): 100%

C#CCOCC1CCC2(C1)NC(=O)C(c1c(C)cc(C#CC)cc1OC)=C2OC(=O)OCC (stereo not shown) [Example P-103]
Pre-emergence action against SETVI in % (SETVI [1]): 100%
Post-emergence action against ALOMY in % (ALOMY [2]): 100%
Pre-emergence action against ECHCG in % (ECHCG [3]): 100%
Post-emergence action against LOLRI in % (LOLRI [4]): 90%
Pre-emergence action against ALOMY in % (ALOMY [5]): 100%
Post-emergence action against DIGSA in % (DIGSA [6]): 100%
Pre-emergence action against MATIN in % (MATIN): 90%
Post-emergence action against SETVI in % (SETVI [7]): 100%
Pre-emergence action against DIGSA in % (DIGSA [8]): 100%
Post-emergence action against ECHCG in % (ECHCG [9]): 100%
Pre-emergence action against AMARE in % (AMARE): 100%
Pre-emergence action against VERPE in % (VERPE): 90%
Post-emergence action against AVEFA in % (AVEFA [10]): 90%
Pre-emergence herbicidal action against LOLRI in % (LOLRI [11]): 100%
Pre-emergence action against AVEFA in % (AVEFA [12]): 100%
